Earlier results as cited in patent US11793762B2, “Composition and method for reducing joint pain associated with hemarthrosis and hemophilic arthropathy” (UPEXMED CO. LTD., priority 2018, dated 2023).
Converted amounts (≈) assume the structure as drawn.

Cc1ccc(-c2cc(C(F)(F)F)nn2-c2ccc(S(N)(=O)=O)cc2)cc1 [Celecoxib]
solubility in water: 4300 µg/mL (≈ 11.3 mM)
